This is an account of results in patent publication US20070259856A1, “Method for Activating Trpv4 Channel Receptors by Agonists” (priority 2004, published 2007).

Test [1] relates to bovine articular cartilage explants. Put plainly: IL-1 induced collagen degradation (hydroxyproline) in bovine articular cartilage explants. The test is classed as cell-based. On the procedure:
IL-1 stimulates collagen degradation in bovine articular cartilage explants after extended (−2-3 weeks) exposure to IL-1. Collagen breakdown was evaluated by measuring the levels of hydroxyproline, a major component of hydrolyzed collagen fibrils, using a colorimetric assay that is understood in the art. Bovine articular cartilage was stimulated with IL-1 for 18 days, in the absence or presence of Formula Ib or Formula IId (both at 1 uM). Media was removed and replaced every 2-4 days with fresh IL-1 and compound through day 18. As has been shown previously, aggrecan degradation precedes collagen breakdown in IL-1-stimulated bovine cartilage explants. Once aggrecan depletion had been achieved by day 10, media were analyzed for collagen breakdown using the hydroxyproline assay.

Test [2] addresses T1, TRPV4 channel receptor (Bos taurus, UniProt A0A8F4X677).
T1 construct: endogenous in cells; host or cells: bovine articular chondrocytes
Put plainly: Ca2+ influx in bovine articular chondrocytes (FlexStation). In kind it is cell-based.

In test [3] the test system is bovine articular cartilage explants. Description: IL-1 induced aggrecan degradation (GAG release, DMMB) in bovine articular cartilage explants. The test is classed as cell-based. As to conditions: for IC50: IL-1-stimulated bovine cartilage. The text has this:
Articular cartilage explants isolated from newborn calves at slaughter were placed in culture, and aggrecan degradation was initiated through stimulation with IL-1. Since aggrecan degradation in this model is believed to be mediated by aggrecanase, TRPV4 channel receptor agonists that are active in the chondrocyte-based aggrecanase peptide assay (Example 11) may also be effective inhibitors in the cartilage explant assay, presumably by blocking aggrecanase production in these tissues.
At the end of the culture period, conditioned media were assayed for glycosaminoglycan (GAG) levels by colorimetric (DMMB) assay as a measure of aggrecan degradation. In bovine explants, IL-1 induced a profound increase in the amount of GAG released into the media during the 3 day culture. When cartilage was treated with IL-1 in combination with Formula IIc, there was a concentration-dependent reduction in GAG release as shown in Table 5.

Test [4] deals with T2, TRPV4 channel receptor (Homo sapiens, UniProt Q9HBA0). Put plainly: FLIPR assay. In kind it is cell-based.
For a further test, the system named is human cartilage explants. Description: Aggrecan degradation (GAG, DMMB) in human cartilage explants. The test is classed as cell-based. As to conditions: Homo sapiens; estimated; 3-point concentration response. How it is done:
Because the progression of aggrecan degradation in response to IL-1 in human cartilage is slower than in bovine cartilage, culture media was removed and replaced with fresh treatments every 2-3 days for approximately 3 weeks. For each timepoint, GAG levels were measured by DMMB assay, and cumulative data released over the entire 3 week culture period was calculated.
The data represents cumulative aggrecan degradation after 21 days in culture. […] In addition, Formula IId caused a concentration-dependent reduction of IL-1-induced aggrecan degradation. […] The estimated IC50's shown in Table 7 are very similar to those IC50's calculated from IL-1-stimulated bovine cartilage.

The subject of the next test is aggrecanase. Description: IL-1 induced aggrecanase production, chondrocyte-based aggrecanase peptide cleavage assay. The test is classed as cell-based, bovine. From the text:
Aggrecanases (ADAMTSs), in conjunction with MMPs, degrade aggrecan, one of the major matrix components in articular cartilage. […] 2003; 48(1): 119-133].

In test [5] the target is T2, TRPV4 channel receptor. Description: Ca2+ influx in human articular chondrocytes (FlexStation). As to conditions: for HAC % eff: human articular chondrocytes; for Ca Influx - FLEX (human) % effic. / Ca2+ influx: human chondrocytes.
In test [6] the target is TRPV4 channel receptor (Rattus norvegicus, UniProt Q9ERZ8). Put plainly: Ca2+ influx in rat articular chondrocytes (FlexStation). As to conditions: for EC50: RAC EC50, rat articular chondrocytes; for EC50 / RAC % eff: N = 2; for RAC % eff: rat articular chondrocytes; for Ca2+ influx: rat chondrocytes.
For test [7], the system named is cells transfected with empty vector. Put plainly: Intracellular calcium (FLIPR) in HEK293 cells transfected with empty vector. The test is classed as cell-based. The arrangement: key to pEC50 empty vector: IA = inactive. As to conditions: for pEC50 empty vector: intracellular calcium, mean ± s.e.mean, n = 3-5. On the procedure:
(§1) TRPV4 channel receptor cDNA was inserted into the expression vector pcDNA3.1 V5-His (Invitrogen, Carlsbad, Calif.). Wildtype HEK293 cells, or HEK293 cells transfected with the human TRPV4 channel receptor: pcDNA3.1 V5-His construct, or mock transfected cells, or bovine chondrocytes, were seeded into 96-well microtitre plates at 25,000 cells/well and cultured overnight. The cells were then incubated with 4 μM Fluo-3 (Fluo-3: Molecular Probes (Eugene, Oreg.)) for 2 hours at room temperature in the dark. Dye loaded cells were washed 4× with Tyrodes buffer: (NaCl, 145 mM; KCl, 2.5 mM; Hepes, 10 mM; Glucose, 10 mM; MgCl2, 1.2 mM; CaCl2, 1.5 mM), which also contained 0.2% BSA but not probenecid. Agonists and antagonists were also prepared in Tyrodes buffer. Cells were preincubated for 30 minutes with antagonist or buffer. Agonist addition and measurement of cytoplasmic calcium concentration was performed in the FLIPR (Smart, et al., (2000) Br. J. Pharmacol. 129, 227-230).

For test [8], the target named is T2, TRPV4 channel receptor. Description: Intracellular calcium (FLIPR, Fluo-3) in HEK293 cells transfected with human TRPV4 channel receptor. In kind it is cell-based. As to conditions: for pEC50 TRPVR4: intracellular calcium, mean ± s.e.mean, n = 3-5. The arrangement: V5-His (from the vector's name only); expressed in transfected cells; host or cells: HEK293; key to pEC50 TRPVR4: IA = inactive. How it is done:
as §1

Another test concerns the target TRPVR1 (Homo sapiens, UniProt Q8NER1). The test is classed as cell-based. As to conditions: for pEC50 TRPVR1: intracellular calcium, mean ± s.e.mean, n = 3-5.
The test system of another test is wild type HEK293 cells. Put plainly: Intracellular calcium (FLIPR) in wild type HEK293 cells. As to conditions: for pEC50 wild type: intracellular calcium, mean ± s.e.mean, n = 3-5. Also on record: key to pEC50 wild type: IA = inactive. In kind it is cell-based. How it is done: as §1
Setting [9] is: bovine articular chondrocytes, read-out: BAC EC50.
Setting [10] is: bovine chondrocytes, read-out: Ca Influx - FLEX (bovine) EC50.
[11] abbreviates: Ca Influx - FLEX (human) EC50, human chondrocytes.
[12] abbreviates: HAC EC50, human articular chondrocytes, N = 2.

SMILES strings stand for the structures. “And” between values parts separate entries of the source, which are not always exact repeats. Identical values can stand only once. Like-named read-outs stand apart in the source and are kept apart here.

T2 sequence (Q9HBA0 whole entry): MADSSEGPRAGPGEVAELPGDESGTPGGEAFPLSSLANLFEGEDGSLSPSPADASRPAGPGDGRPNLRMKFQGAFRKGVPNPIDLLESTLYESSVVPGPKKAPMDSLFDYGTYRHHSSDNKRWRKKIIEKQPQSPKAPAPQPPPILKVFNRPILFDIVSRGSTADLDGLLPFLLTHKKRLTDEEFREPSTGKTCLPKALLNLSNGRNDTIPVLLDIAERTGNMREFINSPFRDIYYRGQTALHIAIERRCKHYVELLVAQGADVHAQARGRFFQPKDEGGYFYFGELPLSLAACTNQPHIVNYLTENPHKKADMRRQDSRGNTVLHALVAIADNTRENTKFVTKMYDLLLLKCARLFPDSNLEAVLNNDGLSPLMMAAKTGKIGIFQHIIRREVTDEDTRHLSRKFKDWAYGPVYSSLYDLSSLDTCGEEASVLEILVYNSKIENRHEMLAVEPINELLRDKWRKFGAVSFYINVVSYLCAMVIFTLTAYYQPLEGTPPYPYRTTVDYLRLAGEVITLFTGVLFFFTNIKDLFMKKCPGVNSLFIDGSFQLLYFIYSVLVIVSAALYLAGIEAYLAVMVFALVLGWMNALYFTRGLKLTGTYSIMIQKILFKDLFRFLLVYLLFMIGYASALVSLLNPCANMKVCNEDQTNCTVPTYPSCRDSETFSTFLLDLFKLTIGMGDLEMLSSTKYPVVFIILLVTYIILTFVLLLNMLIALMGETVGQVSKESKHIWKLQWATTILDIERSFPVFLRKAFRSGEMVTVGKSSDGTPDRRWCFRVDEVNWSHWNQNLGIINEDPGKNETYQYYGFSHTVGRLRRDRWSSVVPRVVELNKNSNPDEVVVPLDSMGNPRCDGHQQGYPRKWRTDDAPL
T1 sequence (A0A8F4X677 1-871): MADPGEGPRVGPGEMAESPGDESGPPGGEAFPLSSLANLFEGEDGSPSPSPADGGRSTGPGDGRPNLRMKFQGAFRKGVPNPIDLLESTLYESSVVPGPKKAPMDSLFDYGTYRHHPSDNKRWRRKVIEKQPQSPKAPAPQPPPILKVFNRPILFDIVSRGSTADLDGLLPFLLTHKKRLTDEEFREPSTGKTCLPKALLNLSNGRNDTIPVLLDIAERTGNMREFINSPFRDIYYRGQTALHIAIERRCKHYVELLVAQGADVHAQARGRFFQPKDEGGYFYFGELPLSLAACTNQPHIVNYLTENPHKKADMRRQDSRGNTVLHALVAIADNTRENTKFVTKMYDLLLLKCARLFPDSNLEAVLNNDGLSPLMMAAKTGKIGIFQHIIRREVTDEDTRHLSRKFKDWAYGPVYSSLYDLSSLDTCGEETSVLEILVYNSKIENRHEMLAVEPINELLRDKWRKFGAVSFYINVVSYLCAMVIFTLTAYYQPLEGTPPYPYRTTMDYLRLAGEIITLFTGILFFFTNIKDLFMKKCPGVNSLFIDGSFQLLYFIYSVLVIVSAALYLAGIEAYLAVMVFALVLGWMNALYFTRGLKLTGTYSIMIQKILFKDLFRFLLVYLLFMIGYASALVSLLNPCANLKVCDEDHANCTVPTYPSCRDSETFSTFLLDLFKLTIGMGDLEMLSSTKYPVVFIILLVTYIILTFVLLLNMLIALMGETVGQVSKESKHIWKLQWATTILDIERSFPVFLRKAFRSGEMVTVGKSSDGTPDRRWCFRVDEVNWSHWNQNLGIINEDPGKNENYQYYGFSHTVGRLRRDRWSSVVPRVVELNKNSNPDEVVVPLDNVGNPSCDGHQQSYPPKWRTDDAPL
Sequence of TRPV4 channel receptor (Rattus norvegicus, UniProt Q9ERZ8) (Q9ERZ8 whole entry): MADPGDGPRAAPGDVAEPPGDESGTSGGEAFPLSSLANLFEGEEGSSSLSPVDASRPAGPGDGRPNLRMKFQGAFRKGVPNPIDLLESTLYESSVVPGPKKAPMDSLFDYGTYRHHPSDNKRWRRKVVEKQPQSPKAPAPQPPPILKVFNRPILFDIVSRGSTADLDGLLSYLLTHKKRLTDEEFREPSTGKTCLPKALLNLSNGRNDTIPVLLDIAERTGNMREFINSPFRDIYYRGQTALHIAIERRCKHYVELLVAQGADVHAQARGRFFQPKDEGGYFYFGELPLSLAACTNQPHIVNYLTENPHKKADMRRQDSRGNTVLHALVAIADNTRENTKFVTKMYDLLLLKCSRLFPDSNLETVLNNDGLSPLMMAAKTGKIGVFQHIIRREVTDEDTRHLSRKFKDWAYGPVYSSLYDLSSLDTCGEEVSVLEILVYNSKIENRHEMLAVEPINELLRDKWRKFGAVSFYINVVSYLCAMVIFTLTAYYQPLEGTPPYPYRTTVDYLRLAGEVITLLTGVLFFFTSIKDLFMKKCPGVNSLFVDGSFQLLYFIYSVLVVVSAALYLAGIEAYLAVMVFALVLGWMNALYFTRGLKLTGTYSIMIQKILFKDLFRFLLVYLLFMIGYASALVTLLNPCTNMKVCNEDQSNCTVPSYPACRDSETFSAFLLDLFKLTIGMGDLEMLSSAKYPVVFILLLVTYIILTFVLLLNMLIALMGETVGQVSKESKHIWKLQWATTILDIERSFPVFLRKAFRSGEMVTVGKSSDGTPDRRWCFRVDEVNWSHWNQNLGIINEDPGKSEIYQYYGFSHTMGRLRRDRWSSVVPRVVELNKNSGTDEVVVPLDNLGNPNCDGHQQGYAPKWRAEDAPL
Sequence of TRPVR1 (Q8NER1 whole entry): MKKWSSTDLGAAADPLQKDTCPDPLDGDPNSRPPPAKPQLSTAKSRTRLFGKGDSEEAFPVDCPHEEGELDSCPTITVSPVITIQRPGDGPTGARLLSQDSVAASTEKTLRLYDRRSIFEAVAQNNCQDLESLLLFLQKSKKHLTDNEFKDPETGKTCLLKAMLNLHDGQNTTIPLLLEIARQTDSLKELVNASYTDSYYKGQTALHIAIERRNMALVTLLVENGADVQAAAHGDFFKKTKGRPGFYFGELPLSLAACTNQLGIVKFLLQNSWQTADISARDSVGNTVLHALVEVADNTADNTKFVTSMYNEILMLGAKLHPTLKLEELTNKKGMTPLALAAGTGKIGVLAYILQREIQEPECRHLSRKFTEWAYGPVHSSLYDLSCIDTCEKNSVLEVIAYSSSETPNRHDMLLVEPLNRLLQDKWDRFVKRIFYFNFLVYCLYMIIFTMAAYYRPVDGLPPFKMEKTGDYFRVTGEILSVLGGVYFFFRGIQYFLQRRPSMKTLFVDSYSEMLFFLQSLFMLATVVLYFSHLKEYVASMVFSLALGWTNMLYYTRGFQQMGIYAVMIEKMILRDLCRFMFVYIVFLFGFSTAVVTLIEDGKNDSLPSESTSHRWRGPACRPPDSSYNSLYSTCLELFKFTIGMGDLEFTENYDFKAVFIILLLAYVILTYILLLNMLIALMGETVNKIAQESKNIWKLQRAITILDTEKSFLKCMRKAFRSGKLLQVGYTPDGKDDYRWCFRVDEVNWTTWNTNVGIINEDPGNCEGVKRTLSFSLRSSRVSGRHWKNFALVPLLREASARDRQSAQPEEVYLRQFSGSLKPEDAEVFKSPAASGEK

Take `COc1ccc(S(=O)(=O)N(Cc2cccnc2)[C@@H](C(=O)NO)C(C)C)cc1` [CGS-27023A, reference compound]: the “block of IL-1-induced collagen degradation” value in test [1] is “completely blocked”.
As to `CC(C)C[C@H](NC(=O)c1cc2ccccc2s1)C(=O)NCCCN(C)S(=O)(=O)c1ccccc1C#N` [Formula IIIb, N-{(1S)-1-[({3-[[(cyanophenyl)sulfonyl](methyl)amino]propyl}amino)carbonyl]-3-methylbutyl}-1-benzothiophene-2-carboxamide], the BAC % eff entry at TRPV4 channel receptor [2] (bovine articular chondrocytes) was “(104%)”. Also, the EC50 on TRPV4 channel receptor [2] (setting [9]) was 260 nM; on TRPV4 channel receptor [2] (setting [10]) it was 290 nM; on TRPV4 channel receptor [4], 700 nM; at TRPV4 channel receptor [5] (setting [11]), 280 nM; on TRPV4 channel receptor [5] (setting [12]) it was 240 nM and 210 nM; at TRPV4 channel receptor [6] it was 370 nM and 700 nM. For the same compound, the “Ca Influx - FLEX (bovine) % effic.” value at TRPV4 channel receptor [2] (bovine chondrocytes) turned out to be 70%. Further, the IC50 in test [3] (Bos taurus) is 400 nM; in the test with human cartilage explants it was 500 nM; in the test on aggrecanase, 350 nM; in the test with aggrecanase (Bos taurus), 400 nM. Further, on TRPV4 channel receptor [5] (N = 2), the HAC % eff is 124% and 130%. Moreover, the “Ca Influx - FLEX (human) % effic.” value at TRPV4 channel receptor [5] stood at 78%. Moreover, the RAC % eff at TRPV4 channel receptor [6] is 99% and 104%.
On to `CC(C)C[C@H](NC(=O)c1cc2ccccc2s1)C(=O)NCCCN(C)S(=O)(=O)c1ccc(Cl)cc1Cl` [Formula IIIc, N-{(1S)-1-[({3-[[(2,4-dichlorophenyl)sulfonyl](methyl)amino]propyl}amino)carbonyl]-3-methylbutyl}-1-benzothiophene-2-carboxamide], for which the BAC % eff entry at TRPV4 channel receptor [2] (bovine articular chondrocytes) was “(94%)”. The EC50 was 310 nM at TRPV4 channel receptor [2] (setting [9]), 370 nM at TRPV4 channel receptor [4], 250 nM on TRPV4 channel receptor [5] (setting [12]) and 140 nM at TRPV4 channel receptor [6]. The compound further gave an IC50 with aggrecanase (Bos taurus) of 40 nM. This compound gave an HAC % eff on TRPV4 channel receptor [5] (N = 2) of 127%. The RAC % eff on TRPV4 channel receptor [6] worked out at 70%.
Take `CC(C)C[C@H](NC(=O)c1cc2ccccc2s1)C(=O)N[C@@H]1CCCN(S(=O)(=O)c2ccc(Cl)cc2)CC1=O` [Formula IIc, N-{(1S)-1-[({(4R)-1-[(4-chlorophenyl)sulfonyl]-3-oxohexahydro-1H-azepin-4-yl}amino)carbonyl]-3-methylbutyl}-1-benzothiophene-2-carboxamide]: the “GAG release Mean ± SEM” value in test [3] (0.01 μM, IL-1 100 ng/ml, 3 days) is given as 62 ± 4.82 μg/explant; in [3] (0.03 μM, IL-1 100 ng/ml, 3 days), 59 ± 4.62 μg/explant; in [3] (0.10 μM, IL-1 100 ng/ml, 3 days), 43 ± 3.18 μg/explant; in test [3] (1.00 μM, IL-1 100 ng/ml, 3 days), 14 ± 1.44 μg/explant. Moreover, in [3] (Bos taurus, 72 h, 0.01 μM, IL-1 100 ng/ml, 3 days), the inhibition at 0.01 µM is -2%. In test [3] (Bos taurus, 72 h, 0.03 μM, IL-1 100 ng/ml, 3 days), the inhibition at 0.03 µM amounted to 4%. Also, the inhibition at 0.1 µM in [3] (Bos taurus, 72 h, 0.10 μM, IL-1 100 ng/ml, 3 days) stood at 38%. Also, the inhibition at 1 µM in test [3] (Bos taurus, 72 h, 1.00 μM, IL-1 100 ng/ml, 3 days) was found to be 98%. Also, the “inhibition of aggrecan degradation” value in test [3] (IL-1 stimulation for 12 or 21 days) was “Significant inhibition”.
Turning to `CC(C)C[C@H](NC(=O)c1cc2ccccc2n1C)C(=O)N[C@@H]1CCCN(S(=O)(=O)c2ccccc2C#N)CC1` [Formula Ib, N-{(1S)-1-[({(4R)-1-[(2-cyanophenyl)sulfonyl]hexahydro-1H-azepin-4-yl}amino)carbonyl]-3-methylbutyl}-methyl-1H-indole-2-carboxamide], the “Ca Influx - FLEX (bovine) % effic.” value on TRPV4 channel receptor [2] (bovine chondrocytes) is 119%. Further, the EC50 on TRPV4 channel receptor [2] (setting [10]) was found to be 280 nM; at TRPV4 channel receptor [5] (setting [11]) it was 260 nM. The IC50 in test [3] (Bos taurus) was 200 nM; with human cartilage explants it was 300 nM; in the test with aggrecanase (Bos taurus), 600 nM. Also, the “Ca Influx - FLEX (human) % effic.” value at TRPV4 channel receptor [5] was determined as 133%. Further, the “Hydroxyproline Mean ± SEM” value in test [1] (1 uM, IL-1 50 ng/ml, media from day 14-18) was 6 ± 2 µg. Besides, the inhibition at 1 µM in test [1] (Bos taurus, 336 h, 1 uM, IL-1 50 ng/ml, media from day 14-18) amounted to 95%.
As for `CCCCCCCCCCCCCC(=O)O[C@@H]1[C@@H](C)[C@@]2(O)[C@@H](C=C(CO)C[C@]3(O)C(=O)C(C)=C[C@@H]23)[C@@H]2C(C)(C)[C@]12OC(C)=O` [PMA, phorbol 12-myristate 13-acetate], in test [7], the “effect on intracellular calcium in cells transfected with empty vector” value is listed as “without effect” and the pEC50 empty vector entry is listed as “IA”. Also, at TRPV4 channel receptor [8], the “intracellular calcium in HEK293-TRPV4 channel receptor cells” value was “increased intracellular calcium” and the “pEC50 TRPVR4” value is 6.64 ± 0.06. Further, the “Ca2+ influx” value on TRPV4 channel receptor [2] (bovine chondrocytes) is given as “no change in Ca^2+ influx”. Also, on TRPV4 channel receptor [5], the “Ca2+ influx” value is given as “no change in Ca^2+ influx”. For the same compound, on TRPVR1, the “activation of VR1” value is listed as “activated VR1” and the “pEC50 TRPVR1” value worked out at 7.86 ± 0.06. Also, the “Emax at VR1” value on TRPVR1 (compared to capsaicin and RTX) is reported as 0.46. At TRPV4 channel receptor [6], the “Ca2+ influx” value is given as “no change in Ca^2+ influx”. Further, in the test on wild type HEK293 cells, the “effect on intracellular calcium in wild type HEK293 cells” value is listed as “without effect” and the pEC50 wild type entry is given as “IA”.
Consider `C=C(C)[C@]12C[C@@H](C)[C@@]34O[C@](Cc5ccccc5)(O[C@@H]1[C@@H]3C=C(COC(=O)Cc1ccc(O)c(OC)c1)C[C@]1(O)C(=O)C(C)=C[C@@H]41)O2` [RTX], for which the pEC50 empty vector result in test [7] is “IA”. The “pEC50 TRPVR4” value on TRPV4 channel receptor [8] is “IA”. Further, the “pEC50 TRPVR1” value on TRPVR1 was 8.93 ± 0.20. Also, the pEC50 wild type entry in the test on wild type HEK293 cells was “IA”.
As for `COc1cc(CNC(=O)CCCC/C=C/C(C)C)ccc1O` [capsaicin, reference compound], the pEC50 empty vector result in test [7] is reported as “IA”. Besides, on TRPV4 channel receptor [8], the “pEC50 TRPVR4” value is given as “IA”. The “Ca2+ influx” value on TRPV4 channel receptor [2] (bovine chondrocytes), at TRPV4 channel receptor [5] and on TRPV4 channel receptor [6] was “no change in Ca^2+ influx” throughout. Moreover, the pEC50 wild type entry in the test with wild type HEK293 cells was “IA”.
